Experimental data published in PMC3454376, “Salidroside Improves Behavioral and Histological Outcomes and Reduces Apoptosis via PI3K/Akt Signaling after Experimental Traumatic Brain Injury” (PLoS ONE, 2012).

Assays:
cleaved caspase-3 = assay: Western blot, injured cortex; assay type: in vivo, mice; details: for decrease of cleaved caspase-3 level versus vehicle: 20 mg/kg ip 10 min after CCI, P<0.05
Procedure: Three sets of experiments were performed. The first set was to investigate the protective effects of salidroside. All animals were randomized into 1 of 3 groups (sham injury, CCI + vehicle, CCI + SALD 20). Surgery/injury, behavioral testing, and tissue analyses were performed by different individuals. Behavioral testing and tissue analyses were performed by individuals blinded to the treatment group. Salidroside (Cayman Chemical, Ann Arbor, MI, USA) dissolved in normal saline (0.25 mL) or a corresponding volume of vehicle (saline) was administered intraperitoneally 10 min following injury. Testing after injury was completed as follows: 1) behavioral testing at days 1, 4, 7, 14, 21, and 28 (n = 8–10 mice/group); 2) cresyl violet staining at day 28 (n = 9 mice/group); 3) histology, determination of brain water content, and western blot analysis at day 1 or 3 (n = 5–6 mice/group). To determine the optimal dose of salidroside, a pilot study was performed using 2 different doses (20 and 50 mg/kg) administered 10 min after injury, and neurological deficits and tissue damage were evaluated as the main outcomes. […] The second set of experiment was to assess the effect of the inhibition of PI3K/Akt with the specific PI3K inhibitor, LY294002 (Cell Signaling Technology, Danvers, MA, USA), on salidroside effects. Animals were randomized into 4 groups. Mice received either: 1) icv pretreatment of LY294002 followed by SALD 20 after CCI (S20Y group); or 2) icv pretreatment of saline (vehicle control) followed by SALD 20 after CCI (S20V group). 3) Mice were infused icv with saline and were subjected to sham injury. 4) Mice were infused icv with LY294002 and were subjected to sham injury. […] Protein concentration was determined by Bradford reagent spectrophotometrically at A595. […] The relative intensity of protein signals was normalized to the corresponding β-actin intensity and was quantified by densitometric analysis with the use of Image J software.

[1] = test system: mice subjected to controlled cortical impact injury; assay: TUNEL staining of apoptotic cells; assay type: in vivo; details: 20 mg/kg ip 10 min after CCI; day 1; vehicle 57.8±6.4%; P<0.01
Procedure: All animal procedures were approved by the Animal Research Committee at Cheng Hsin General Hospital (Animal permit number […] 101-08), and all procedures complied with the Guide for the Care and Use of Laboratory Animals published by the US National Institutes of Health (NIH Publication No. 85-23, revised 1996). Animals were housed under a 12-h light/dark cycle and at constant temperature (21-25°C) and humidity (45-50%). They were allowed free access to pellet chow and water. TBI in mice was induced by a CCI injury model as previously described. Briefly, 8-week-old male C57BL/6 mice (weighing 22-25 g) were anesthetized through the use of intraperitoneal injection of sodium pentobarbital (65 mg/kg; Rhone Merieux, Harlow, UK) and placed in a stereotaxic frame. A 5 mm craniotomy was performed over the right parietal cortex, centered on the coronal suture and 0.1 mm lateral to the sagittal suture, and injury to dura was avoided. […] Body temperature was monitored throughout the surgery by a rectal probe; temperature was maintained at 37.0±0.5°C using a heated pad. […] To determine the optimal dose of salidroside, a pilot study was performed using 2 different doses (20 and 50 mg/kg) administered 10 min after injury, and neurological deficits and tissue damage were evaluated as the main outcomes. […]

OC[C@H]1O[C@@H](OCCc2ccc(O)cc2)[C@H](O)[C@@H](O)[C@@H]1O [SALD, salidroside]
decrease of cleaved caspase-3 level versus vehicle (cleaved caspase-3; day 1): 49.6% | decrease of cleaved caspase-3 level versus vehicle (cleaved caspase-3; day 3): 34.9% | reduction of cleaved caspase-3 level (cleaved caspase-3; 20 mg/kg ip 3 h after injury, day 1): 34.1% | TUNEL-positive cells (TUNEL-stained nuclei/DAPI-stained nuclei) [1]: 31.0±6.4%
